Results on one molecule are retold here after patent publication US6946468B1, “3-mercaptopyrrolidines as farnesyl protein transferase inhibitors” (Zeneca Limited, priority 1996, dated 2005).

This test deals with T1, Farnesyl protein transferase (FPT) (Homo sapiens, UniProt P49354+P49356).
T1 construct: partially purified from human placenta by ammonium sulphate fractionation; from tissue; host or cells: human placenta
Briefly: Farnesyl protein transferase (FPT) inhibition, tritiated farnesyl pyrophosphate incorporation into Kras (ras-CVIM). In kind it is biochemical. The following applies: FPT partially purified from human placenta; 300 nM tritiated farnesyl pyrophosphate, 120 nM ras-CVIM, 20 minutes at 37°. As to the method: Biological activity was tested as follows. Farnesyl protein transferase (FPT) was partially purified from human placenta by ammonium sulphate fractionation followed by a single Q-Sepharose® (Pharmacia, Inc) anion exchange chromatography essentially as described by Ray and Lopez-Belmonte (Ray K P and Lopez-Belmonte J (1992) Biochemical Society Transations 20 494-497). The substrate for FPT was Kras (CVIM C-terminal sequence). The cDNA for oncogenic val12 variant of human c-Ki-ras-2 4B was obtained from the plasmid pSW11-1 (ATCC). This was then subcloned into the polylinker of a suitable expression vector e.g. pIC147. The Kras was obtained after expression in the E. coli strain, BL21. The expression and purification of c-KI-ras-2 4B and the val12 variant in E. coli has also been reported by Lowe et al (Lowe P N et al. J. Biol. Chem. (1991) 266 1672-1678).
Incubations with enzyme contained 300 nM tritiated farnesyl pyrophosphate (DuPont/New England Nuclear), 120 nM ras-CVIM, 50 mM Tris HCl pH 8.0, 5 mM MgCl2, 10 μM ZnCl2, 5 mM dithiotheitol and compounds were added at appropriate concentrations in DMSO (3% final concentration in test and vehicle control). […] Precipitated protein was then collected onto glass fibre filter mats (B) using a Tomte® cell harvester and tritiated label was measured in a Wallac®1204 Betaplate scintillation counter.

Turning to `O=C(Cc1cccnc1)N(CC(c1ccccc1)c1ccccc1)C[C@@H]1NCC[C@@H]1S` (relative stereo) [Example 2], the IC50 is roughly 420 nM.

A word on the IC50: it is the concentration needed to halve the response being measured. Higher therefore signals lower potency.
